Legend:
AMARE = assay: greenhouse experiment, post-emergence treatment; format: in vivo, Amaranthus retroflexus; conditions: post-emergence method, scale from 0 to 100
From the text: (§1) The culture containers used were plastic flowerpots containing loamy sand with approximately 3.0% of humus as the substrate. The seeds of the test plants were sown separately for each species.
(§2) For the post-emergence treatment, the test plants were first grown to a height of 3 to 15 cm, depending on the plant habit, and only then treated with the active ingredients which had been suspended or emulsified in water. For this purpose, the test plants were either sown directly and grown in the same containers, or they were first grown separately as seedlings and transplanted into the test containers a few days prior to treatment.
(§3) Depending on the species, the plants were kept at 10-25° C. or 20-35° C., respectively.
(§4) The test period extended over 2 to 4 weeks. During this time, the plants were tended, and their response to the individual treatments was evaluated.
(§5) Evaluation was carried out using a scale from 0 to 100. 100 means no emergence of the plants, or complete destruction of at least the aerial moieties, and 0 means no damage, or normal course of growth. A good herbicidal activity is given at values of at least 70 and a very good herbicidal activity is given at values of at least 85.
(§6) The plants used in the greenhouse experiments were of the following species: […]

ECHCG [1] = assay: greenhouse experiment, post-emergence treatment; format: in vivo, Echinocloa crus-galli; conditions: post-emergence method, scale from 0 to 100
Description: The seeds of the test plants were sown separately for each species. […] For this purpose, the test plants were either sown directly and grown in the same containers, or they were first grown separately as seedlings and transplanted into the test containers a few days prior to treatment. Depending on the species, the plants were kept at 10-25° C. or 20-35° C., respectively. The test period extended over 2 to 4 weeks. During this time, the plants were tended, and their response to the individual treatments was evaluated. Evaluation was carried out using a scale from 0 to 100. 100 means no emergence of the plants, or complete destruction of at least the aerial moieties, and 0 means no damage, or normal course of growth. A good herbicidal activity is given at values of at least 70 and a very good herbicidal activity is given at values of at least 85. The plants used in the greenhouse experiments were of the following species: [table]

APESV = assay: greenhouse experiment, pre-emergence treatment; format: in vivo, Apera spica-venti; conditions: pre-emergence method, application rate 2000 g/ha, scale from 0 to 100
From the text: (§7) The seeds of the test plants were sown separately for each species. For the pre-emergence treatment, the active ingredients, which had been suspended or emulsified in water, were applied directly after sowing by means of finely distributing nozzles. The containers were irrigated gently to promote germination and growth and subsequently covered with transparent plastic hoods until the plants had rooted. This cover caused uniform germination of the test plants, unless this had been impaired by the active ingredients. Depending on the species, the plants were kept at 10-25° C. or 20-35° C., respectively. The test period extended over 2 to 4 weeks. During this time, the plants were tended, and their response to the individual treatments was evaluated. Evaluation was carried out using a scale from 0 to 100. 100 means no emergence of the plants, or complete destruction of at least the aerial moieties, and 0 means no damage, or normal course of growth. A good herbicidal activity is given at values of at least 70 and a very good herbicidal activity is given at values of at least 85. The plants used in the greenhouse experiments were of the following species: [table]

ECHCG [2] = assay: greenhouse experiment, pre-emergence treatment; format: in vivo, Echinocloa crus-galli; conditions: pre-emergence method, application rate 2000 g/ha, scale from 0 to 100
From the text: as §7

AVEFA = assay: greenhouse experiment, post-emergence treatment; format: in vivo, Avena fatua; conditions: post-emergence method, application rate 2000 g/ha, scale from 0 to 100
From the text: as §1, §2, §3, §4, §5, §6

ALOMY = assay: greenhouse experiment, post-emergence treatment; format: in vivo, Alopecurus myosuroides; conditions: post-emergence method, application rate 2000 g/ha, scale from 0 to 100
From the text: as §1, §2, §3, §4, §5, §6

SETVI = assay: greenhouse experiment, post-emergence treatment; format: in vivo, Setaria viridis; conditions: post-emergence method, application rate 2000 g/ha, scale from 0 to 100
From the text: as §1, §2, §3, §4, §5, §6

| SMILES | herbicidal activity against AMARE (AMARE; application rate 2000 g/ha) | herbicidal activity against ECHCG (ECHCG [1]; application rate 2000 g/ha) | herbicidal activity against APESV (APESV) | herbicidal activity against ECHCG (ECHCG [2]) | herbicidal activity against AVEFA (AVEFA) | herbicidal activity against ALOMY (ALOMY) | herbicidal activity against SETVI (SETVI) | herbicidal activity against AMARE (AMARE; application rate 1000 g/ha) | herbicidal activity against ECHCG (ECHCG [1]; application rate 1000 g/ha) |
| --- | --- | --- | --- | --- | --- | --- | --- | --- | --- |
| Cc1ccsc1-c1cnc(C2CC2)nc1C(=O)O [Example 3] | very good (a very good herbicidal activity is given at values of at least 85) | very good (a very good herbicidal activity is given at values of at least 85) | very good (a very good herbicidal activity is given at values of at least 85) | very good (a very good herbicidal activity is given at values of at least 85) |  |  |  |  |  |
| COC(=O)c1nc(C2CC2)ncc1-c1occc1C(F)F [Example 17] | very good (a very good herbicidal activity is given at values of at least 85) |  |  |  |  |  |  |  |  |
| COC(=O)c1nc(C2CC2)ncc1-c1cccnc1Br [Example 18] | very good (a very good herbicidal activity is given at values of at least 85) | very good (a very good herbicidal activity is given at values of at least 85) | very good (a very good herbicidal activity is given at values of at least 85) | very good (a very good herbicidal activity is given at values of at least 85) | very good (a very good herbicidal activity is given at values of at least 85) |  |  |  |  |
| COC(=O)c1nc(C2CC2)ncc1-c1ncc(F)cc1Br [Example 21] |  | very good (a very good herbicidal activity is given at values of at least 85) | very good (a very good herbicidal activity is given at values of at least 85) | very good (a very good herbicidal activity is given at values of at least 85) | very good (a very good herbicidal activity is given at values of at least 85) | very good (a very good herbicidal activity is given at values of at least 85) |  |  |  |
| O=C(O)c1nc(C2CC2)ncc1-c1ncc(F)cc1Br [Example 24] | very good (a very good herbicidal activity is given at values of at least 85) | very good (a very good herbicidal activity is given at values of at least 85) | very good (a very good herbicidal activity is given at values of at least 85) | very good (a very good herbicidal activity is given at values of at least 85) | very good (a very good herbicidal activity is given at values of at least 85) |  |  |  |  |
| O=C(O)c1nc(C2CC2)ncc1-c1ncccc1Br [Example 29] |  | very good (a very good herbicidal activity is given at values of at least 85) | good (A good herbicidal activity is given at values of at least 70) | good (A good herbicidal activity is given at values of at least 70) | very good (a very good herbicidal activity is given at values of at least 85) | very good (a very good herbicidal activity is given at values of at least 85) |  |  |  |
| COC(=O)c1nc(C2CC2)ncc1-c1cnccc1Br [Example 32] | very good (a very good herbicidal activity is given at values of at least 85) |  | very good (a very good herbicidal activity is given at values of at least 85) | very good (a very good herbicidal activity is given at values of at least 85) |  |  |  |  |  |
| O=C(O)c1nc(C2CC2)ncc1-c1ccncc1Br [Example 38] | very good (a very good herbicidal activity is given at values of at least 85) |  | very good (a very good herbicidal activity is given at values of at least 85) | very good (a very good herbicidal activity is given at values of at least 85) | very good (a very good herbicidal activity is given at values of at least 85) | very good (a very good herbicidal activity is given at values of at least 85) |  |  |  |
| O=C(O)c1nc(C2CC2)ncc1-c1ncccc1I [Example 39] |  | good (A good herbicidal activity is given at values of at least 70) | very good (a very good herbicidal activity is given at values of at least 85) | very good (a very good herbicidal activity is given at values of at least 85) | very good (a very good herbicidal activity is given at values of at least 85) | good (A good herbicidal activity is given at values of at least 70) |  |  |  |
| O=Cc1ccoc1-c1cnc(C2CC2)nc1C(=O)O [Example 40] | very good (a very good herbicidal activity is given at values of at least 85) |  |  |  |  |  |  |  |  |
| O=C(O)c1nc(C2CC2)ncc1-c1ncc(F)cc1Cl [Example 42] |  | very good (a very good herbicidal activity is given at values of at least 85) | very good (a very good herbicidal activity is given at values of at least 85) | very good (a very good herbicidal activity is given at values of at least 85) | very good (a very good herbicidal activity is given at values of at least 85) | very good (a very good herbicidal activity is given at values of at least 85) |  |  |  |
| COC(=O)c1nc(OC)ncc1-c1ncccc1F [Example 46] | good (A good herbicidal activity is given at values of at least 70) |  |  |  |  |  |  |  |  |
| CCc1ncc(-c2cccnc2Br)c(C(=O)O)n1 [Example 48] |  |  |  |  |  |  | very good (a very good herbicidal activity is given at values of at least 85) |  |  |
| CCc1ncc(-c2ncc(F)cc2Br)c(C(=O)O)n1 [Example 54] |  |  |  |  |  |  |  | very good (a very good herbicidal activity is given at values of at least 85) | very good (a very good herbicidal activity is given at values of at least 85) |
| O=C(O)c1nc(C2CC2)ncc1-c1nc(C(F)(F)F)ccc1F [Example 62] |  | very good (a very good herbicidal activity is given at values of at least 85) | very good (a very good herbicidal activity is given at values of at least 85) | very good (a very good herbicidal activity is given at values of at least 85) | very good (a very good herbicidal activity is given at values of at least 85) | very good (a very good herbicidal activity is given at values of at least 85) |  |  |  |
| O=C(O)c1nc(C2CC2)ncc1-c1cc(C(F)(F)F)ncc1Cl [Example 64] |  | good (A good herbicidal activity is given at values of at least 70) | very good (a very good herbicidal activity is given at values of at least 85) | very good (a very good herbicidal activity is given at values of at least 85) | very good (a very good herbicidal activity is given at values of at least 85) | very good (a very good herbicidal activity is given at values of at least 85) |  |  |  |

Source: patent US11180470B2, “Herbicidal pyrimidine compounds” (BASF SE, priority 2016, dated 2021)
